Measured values taken from patent US9963496B2, “Stable glucagon analogues and use for treatment of hypoglycaemia” (Novo Nordisk A/S, priority 2014, dated 2018).
*1 amine or outer side, *2 acyl side, *3 side chain or, on linkers, in order; H or OH if unused. Where a SMILES comes first, the peptide text is derived from it. Side-chain parts run from the residue outwards. [ ]: non-standard residue; d: D form. The star is where a group is joined. γGlu = O=C(O)[C@H](CCC(=O)[*:2])N[*:1]; Desaminohistidyl = O=C(CCc1c[nH]cn1)*; Aib = CC(C)(N)C(=O)O

Tests used:
[1] = molecular target: T1, human glucagon receptor (Homo sapiens, UniProt P47871); experiment: Assay (II)(b): glucagon receptor binding, 125I-glucagon displacement on isolated membranes (SPA); settings: displacement of 125I-glucagon, membranes of BHK cells with human glucagon receptor, 2 h at 25° C.; read-out: IC50 hGlucagonR
T1 construct: expressed in transfected cells; host or cells: BHK cells, clone BHK hGCGR A3*25; isolated membranes
T1 sequence (P47871 26-477): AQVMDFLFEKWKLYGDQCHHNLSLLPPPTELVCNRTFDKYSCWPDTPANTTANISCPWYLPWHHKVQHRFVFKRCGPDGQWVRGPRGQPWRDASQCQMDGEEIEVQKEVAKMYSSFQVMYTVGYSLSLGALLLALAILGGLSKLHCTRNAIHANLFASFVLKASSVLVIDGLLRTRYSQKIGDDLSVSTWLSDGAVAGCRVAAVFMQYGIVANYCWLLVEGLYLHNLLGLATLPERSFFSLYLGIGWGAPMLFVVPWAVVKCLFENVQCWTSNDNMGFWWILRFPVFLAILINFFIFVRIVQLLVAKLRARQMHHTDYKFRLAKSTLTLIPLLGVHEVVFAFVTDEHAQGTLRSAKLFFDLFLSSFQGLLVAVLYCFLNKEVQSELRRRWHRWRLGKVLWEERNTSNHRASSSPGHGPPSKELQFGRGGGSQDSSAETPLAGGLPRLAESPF
Description: (b) Glucagon Receptor Binding
The purpose of this assay was to test the in vitro receptor binding activity of the glucagon derivatives of the invention. The receptor binding activity is a measure of affinity of a derivative for the human glucagon receptor.
The receptor binding of each compound to the human glucagon receptor was measured in a displacement binding assay. In this type of assay a labelled ligand (in this case 125I-glucagon) is bound to the receptor. Each derivative is added in a series of concentrations to isolated membranes containing the human glucagon receptor and displacement of the labelled ligand is monitored. The receptor binding is reported as the concentration at which half of the labelled ligand is displaced from the receptor, the IC50 value.
HME buffer consisted of 25 mM HEPES, 2 mM MgCl2 and 1 mM EDTA, and pH was adjusted to 7.4. Binding buffer consisted of 50 mM HEPES supplemented with 5 mM MgCl2, 1 mM CaCl2, 0.02% Tween 20 and 0.1% Ovalbumin, and pH was adjusted to 7.4.
The cells used in this assay (clone BHK hGCGR A3*25) were BHK cells stable transfected with an expression plasmid containing the cDNA encoding the human glucagon receptor.
The cells were grown at 5% CO2 in DMEM, 10% fetal calf serum, 1% Pen/Strep (Penicillin/Streptomycin) and 1.0 mg/mL of the selection marker G418. To make a membrane preparation the cells were grown to approximately 80% confluence. The cells were washed twice in phosphate-buffered saline and harvested. The cells were pelleted using a brief centrifugation and the cell pellet was kept on ice. The cells were lysed by adding approx. 5 mL HME buffer, mix by pipetting and snap freeze in liquid nitrogen. The cell lysate was quickly thawed and HME buffer added to 10 mL. The cell pellet was homogenised with an ULTRA-THURRAX dispersing instrument for 20-30 seconds. The homogenate was centrifuged at 20,000×G, 4° C. for 10 minutes. The pellet was resuspended (homogenised) in 1-2 mL HME buffer. The protein concentration was determined. The membranes were aliquoted and snap frozen in liquid nitrogen and stored at minus 80° C.
• 1. For the receptor binding assay 50 μl of the assay buffer was added to each well of an assay plate. • 2. Test compounds were serially diluted to give the following concentrations: 8×10 EE-7 M, 8×10 EE-8 M, 8×10 EE-9 M, 8×10 EE-10 M, 8×10 EE-11 M, 8×10 EE-12 M and 8×10 EE-13 M. Twenty-five μl were added to appropriate wells in the assay plate. • 3. Cell membrane aliquots were thawed and diluted to their working concentration. Fifty μl were added to each well in the assay plate. • 4. WGA SPA beads were suspended in assay buffer at 20 mg/mL. The suspension was diluted to 10 mg/mL in assay buffer just prior to addition to the assay plate. Fifty μl were added to each well in the assay plate. • 5. The incubation was started by adding 25 μl of 480 pM solution of [125I]-glucagon to each well of the assay plate. A 25 μl aliquot was reserved for measuring total counts/well. • 6. The assay plate was incubated for 2 h at 25° C. • 7. The assay plate was centrifuged for 10 min at 1500 rpm. • 8. The assay plate was read in a Packard TopCount NXT instrument. Calculations
The data from the TopCount instrument were transferred to GraphPad Prism software. The software averaged the values for the replicates and performed a non-linear regression.

[2] = molecular target: T1, human glucagon receptor; experiment: Assay (I)(b): glucagon receptor activation, CRE luciferase reporter gene assay in BHK cells; type: cell-based; settings: BHK cells expressing human glucagon receptor and CRE luciferase, 3 h incubation; read-out: EC50 hGlucagonR
Summary of the method: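 BHK570 cells stably expressing the human glucagon receptor and CRE-luciferase, 5×10 EE3 cells/well in DMEM with 2% ovalbumin and 0.2% Pluronic F-68. Compounds at final 1×10 EE-6 to 1×10 EE-13 M, 3 h at 37° C. Luminescence read; EC50 by four-parameter fit.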

| Structure (SMILES) | IC50 [1] [nM] | EC50 [2] [nM] |
| --- | --- | --- |
| CC(=O)N[C@@H](CCC(=O)N[C@@H](CCC(=O)N[C@@H](CCC(=O)N[C@@H](CCC(=O)NCCCC[C@H](NC(=O)[C@@H](NC(=O)[C@H](Cc1ccccc1)NC(=O)[C@H](CC(=O)O)NC(=O)[C@H](CCC(N)=O)NC(=O)[C@H](C)NC(=O)[C@H](CCCNC(=N)N)NC(=O)[C@H](CCCNC(=N)N)NC(=O)[C@@H](NC(=O)[C@H](CC(=O)O)NC(=O)[C@H](CC(C)C)NC(=O)[C@H](Cc1ccc(O)cc1)NC(=O)[C@H](CCCCN)NC(=O)[C@H](CO)NC(=O)[C@H](Cc1ccc(O)cc1)NC(=O)[C@H](CC(=O)O)NC(=O)[C@H](CO)NC(=O)[C@@H](NC(=O)[C@H](Cc1ccccc1)NC(=O)[C@@H](NC(=O)CNC(=O)[C@H](Cc1c[nH]cn1)NC(=O)C(C)(C)NC(=O)CCc1c[nH]cn1)[C@@H](C)O)[C@@H](C)O)C(C)C)C(C)C)C(=O)N[C@@H](Cc1c[nH]c2ccccc12)C(=O)N[C@@H](CC(C)C)C(=O)N[C@@H](CC(C)C)C(=O)N[C@@H](CO)C(=O)N[C@H](C(=O)O)[C@@H](C)O)C(=O)O)C(=O)O)C(=O)O)C(=O)O [Example 10, N^ϵ24-[(4S)-4-[[(4S)-4-[[(4S)-4-[[(4S)-4-acetamido-4-carboxybutanoyl]amino]-4-carboxybutanoyl]amino]-4-carboxybutanoyl]amino]-4-carboxybutanoyl]-[Imp1, Aib2, His3, Val16, Lys24, Leu27, Ser28]-Glucagon] (Desaminohistidyl-[Aib]HGTFTSDYSKYLDVRRAQDFVK([γGlu-γGlu-γGlu-γGlu-Ac])WLLST-OH) | 0.5 | 0.002 |
| CC(=O)N[C@@H](CCC(=O)N[C@@H](CCC(=O)N[C@@H](CCC(=O)N[C@@H](CCC(=O)NCCCC[C@H](NC(=O)[C@@H](NC(=O)[C@H](Cc1ccccc1)NC(=O)[C@H](CCC(=O)O)NC(=O)[C@H](CCC(N)=O)NC(=O)[C@H](C)NC(=O)[C@H](CCCNC(=N)N)NC(=O)[C@H](CCCNC(=N)N)NC(=O)[C@H](CC(C)C)NC(=O)[C@H](CC(=O)O)NC(=O)[C@H](CC(C)C)NC(=O)[C@H](Cc1ccc(O)cc1)NC(=O)[C@H](CCCCN)NC(=O)[C@H](CO)NC(=O)[C@H](Cc1ccc(O)cc1)NC(=O)[C@H](CC(=O)O)NC(=O)[C@H](CO)NC(=O)[C@@H](NC(=O)[C@H](Cc1ccccc1)NC(=O)[C@@H](NC(=O)CNC(=O)[C@H](Cc1c[nH]cn1)NC(=O)[C@H](CO)NC(=O)CCc1c[nH]cn1)[C@@H](C)O)[C@@H](C)O)C(C)C)C(=O)N[C@@H](Cc1c[nH]c2ccccc12)C(=O)N[C@@H](CC(C)C)C(=O)N[C@@H](CC(C)C)C(=O)N[C@@H](CO)C(=O)N[C@H](C(=O)O)[C@@H](C)O)C(=O)O)C(=O)O)C(=O)O)C(=O)O [Example 8, N^ϵ24-[(4S)-4-[[(4S)-4-[[(4S)-4-[[(4S)-4-acetamido-4-carboxybutanoyl]amino]-4-carboxybutanoyl]amino]-4-carboxybutanoyl]amino]-4-carboxybutanoyl]-[Imp1, His3, Leu16, Glu21, Lys24, Leu27, Ser28]-Glucagon] (Desaminohistidyl-SHGTFTSDYSKYLDLRRAQEFVK([γGlu-γGlu-γGlu-γGlu-Ac])WLLST-OH) | 0.2 | 0.001 |
| CC(=O)N[C@@H](CCC(=O)N[C@@H](CCC(=O)N[C@@H](CCC(=O)N[C@@H](CCC(=O)NCCCC[C@H](NC(=O)[C@H](CC(C)C)NC(=O)[C@H](CC(C)C)NC(=O)[C@H](Cc1c[nH]c2ccccc12)NC(=O)[C@H](C)NC(=O)[C@@H](NC(=O)[C@H](Cc1ccccc1)NC(=O)[C@H](CC(=O)O)NC(=O)[C@H](CCC(N)=O)NC(=O)[C@H](C)NC(=O)[C@H](CCCNC(=N)N)NC(=O)[C@H](CCCNC(=N)N)NC(=O)[C@H](CO)NC(=O)[C@H](CCC(=O)O)NC(=O)[C@H](CC(C)C)NC(=O)[C@H](Cc1ccc(O)cc1)NC(=O)[C@H](CCCCN)NC(=O)[C@H](CO)NC(=O)[C@H](Cc1ccc(O)cc1)NC(=O)[C@H](CC(=O)O)NC(=O)[C@H](CO)NC(=O)[C@@H](NC(=O)[C@H](Cc1ccccc1)NC(=O)[C@@H](NC(=O)CNC(=O)[C@H](Cc1c[nH]cn1)NC(=O)C(C)(C)NC(=O)CCc1c[nH]cn1)[C@@H](C)O)[C@@H](C)O)C(C)C)C(=O)N[C@H](C(=O)O)[C@@H](C)O)C(=O)O)C(=O)O)C(=O)O)C(=O)O [Example 4, N^ϵ28-[(4S)-4-[[(4S)-4-[[(4S)-4-[[(4S)-4-acetamido-4-carboxybutanoyl]amino]-4-carboxybutanoyl]amino]-4-carboxybutanoyl]amino]-4-carboxybutanoyl]-[Imp1, Aib2, His3, Glu15, Ala24, Leu27, Lys28]-Glucagon] (Desaminohistidyl-[Aib]HGTFTSDYSKYLESRRAQDFVAWLLK([γGlu-γGlu-γGlu-γGlu-Ac])T-OH) | 1.8 | 0.005 |
| CC(=O)N[C@@H](CCC(=O)N[C@@H](CCC(=O)N[C@@H](CCC(=O)N[C@@H](CCC(=O)NCCCC[C@H](NC(=O)[C@@H](NC(=O)[C@H](Cc1ccccc1)NC(=O)[C@H](CC(=O)O)NC(=O)[C@H](CCC(N)=O)NC(=O)[C@H](C)NC(=O)[C@H](CCCNC(=N)N)NC(=O)[C@H](CCCNC(=N)N)NC(=O)[C@H](CC(C)C)NC(=O)[C@H](CC(=O)O)NC(=O)[C@H](CC(C)C)NC(=O)[C@H](Cc1ccc(O)cc1)NC(=O)[C@H](CCCCN)NC(=O)[C@H](CO)NC(=O)[C@H](Cc1ccc(O)cc1)NC(=O)[C@H](CC(=O)O)NC(=O)[C@H](CO)NC(=O)[C@@H](NC(=O)[C@H](Cc1ccccc1)NC(=O)[C@@H](NC(=O)CNC(=O)[C@H](Cc1c[nH]cn1)NC(=O)C(C)(C)NC(=O)CCc1c[nH]cn1)[C@@H](C)O)[C@@H](C)O)C(C)C)C(=O)N[C@@H](Cc1c[nH]c2ccccc12)C(=O)N[C@@H](CC(C)C)C(=O)N[C@@H](CC(C)C)C(=O)N[C@@H](CO)C(=O)N[C@H](C(=O)O)[C@@H](C)O)C(=O)O)C(=O)O)C(=O)O)C(=O)O [Example 1, N^ϵ24-[(4S)-4-[[(4S)-4-[[(4S)-4-[[(4S)-4-acetamido-4-carboxybutanoyl]amino]-4-carboxybutanoyl]amino]-4-carboxybutanoyl]amino]-4-carboxybutanoyl]-[Imp1, Aib2, His3, Leu16, Lys24, Leu27, Ser28]-Glucagon] (Desaminohistidyl-[Aib]HGTFTSDYSKYLDLRRAQDFVK([γGlu-γGlu-γGlu-γGlu-Ac])WLLST-OH) | 0.2 | 0.001 |
